{
  "source": "patent US20250304617A1",
  "about": "“COMPOUND, SALT OF COMPOUND, ANTIBODY MODIFICATION REAGENT, METHOD FOR PRODUCING MODIFIED ANTIBODY, AND MODIFIED ANTIBODY” (Kagoshima University, priority 2021, published 2025)",
  "assay": "Examination of stability in DMSO (HPLC purity)",
  "type": "physicochemical",
  "details": "20 mg/mL in DMSO",
  "protocol": "The compound A, the compound B, or the comparative example was dissolved in DMSO at a content of 20 mg/mL, allowed to stand at room temperature or −20° C. for a predetermined time, and analyzed by HPLC.\nFor the compound A, the compound B, and the comparative example, the ratio of the area of the main peak to the sum of the areas of all peaks (HPLC purity) is shown in Table 1.",
  "data": [
    {"smiles": "[N-]=[N+]=NCCCCC1NONC(C(N)=O)CCCCC(NCCCC(=O)C(Cc2ccccc2)NC(=O)CCCC(=O)ON2C(=O)CCC2=O)C(=O)N1", "note": "(stereo not shown) [Comparative example, DSG-αZ34C, reference compound]", "values": [
      {"measurement": "HPLC purity (ratio of the area of the main peak to the sum of the areas of all peaks)", "setting": "room temperature, 0 Hours", "value": 85, "unit": "%"},
      {"measurement": "HPLC purity (ratio of the area of the main peak to the sum of the areas of all peaks)", "setting": "room temperature, 22 Hours", "value": 83, "unit": "%"},
      {"measurement": "HPLC purity (ratio of the area of the main peak to the sum of the areas of all peaks)", "setting": "−20° C., 0 Days", "value": 92, "unit": "%"},
      {"measurement": "HPLC purity (ratio of the area of the main peak to the sum of the areas of all peaks)", "setting": "−20° C., 30 Days", "value": 85, "unit": "%"}
    ]}
  ]
}
